{
  "source": "paper PMC9738620",
  "about": "“Computer- and NMR-Aided Design of Small-Molecule Inhibitors of the Hub1 Protein” (Molecules, 2022)",
  "key": {"Hub1 [1]": {"target": "T1, Hub1 (Saccharomyces cerevisiae, UniProt Q6Q546)", "T1 sequence (Q6Q546 whole entry)": "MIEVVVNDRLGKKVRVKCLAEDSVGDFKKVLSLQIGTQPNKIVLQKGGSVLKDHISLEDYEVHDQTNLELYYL", "assay": "biochemical", "experimental": "Hub1 buffered in 20 mM HEPES, pH 7.5, 100 mM NaCl, 0.05% Tween-20 was labeled using His-Tag Labelling Kit RED-tris-NTA 2nd generation (MO-L018, NanoTemper, Munich, Germany), according to the manufacturer’s protocol. […] The final concentration of Hub1 was 50 nM. All measurements were calculated on a Monolith NT.115 instrument (NanoTemper, Munich, Germany) using the standard capillaries at the excitation power of 60% and the medium MST power in duplicates. The results were analyzed in GraphPad Prism software (GraphPad Prism version 8.0.0 for Windows, GraphPad Software, San Diego, CA, USA)."}, "Hub1 [2]": {"target": "T1, Hub1", "experimental": "The NMR measurements were carried out at 300 K on an ultrashielded 600 MHz Bruker AVANCE 3 (Bruker Corporation, Billerica, MA, USA) spectrometer equipped with a liquid nitrogen cryogenic system. Uniform ^15N isotope labeling was achieved by the expression of the protein in the M9 minimal media containing ^15NH4Cl as the sole nitrogen source. The NMR buffer for ^15N-labeled protein was PBS pH 7.4 with 5 mM DTT (dithiothreitol). To provide a lock signal, 10% (v/v) of D2O was added to the samples. Water suppression was carried out using the WATERGATE sequence. Stock solutions of the inhibitors used for titration were prepared in DMSO-d6. The binding of small molecule fragments towards Hub1 was measured with the 2D SOFAST-HMQC spectra of the ^15N-labeled Hub1 recombinant protein in 3-mm NMR capillaries. For the preliminary screening, the mixture of three compounds was added in a molar ratio compound to protein 1:10. Then the ^1H and SOFAST-HMQC spectrum was recorded and compared with the reference spectrum of the protein Hub1 titrated with a suitable amount of DMSO. When any activity occurred, all compounds which were in the mixture were tested one by one. The individual spectra were recorded in 10-fold excess of the inhibitor either by ^1H NMR or SOFAST-HMQC. […] The spectra were processed with TopSpin 3.2 software (Bruker Corporation, Billerica, MA, USA)."}, "Snu66 peptide-14": {"target": "T2, Snu66 peptide-14 (Saccharomyces cerevisiae)", "T2 chain": "TNEIREKLGM", "assay": "MST"}},
  "note": "Ends that are not written are not given here.",
  "data": [
    {"molecule": "IREKLGM [Peptide-11]", "values": [
      {"measurement": "binding to Hub1 by MST (in words)", "setting": "Hub1 [1]; MST, labeled Hub1 50 nM, peptide […] to 250 µM, pH 7.5, duplicates", "result": "no significant binding events"},
      {"measurement": "changes in chemical shifts (in words)", "setting": "Hub1 [2]; 1H NMR, Hub1:peptide ratio 1:1 to 1:10, 300 K", "result": "changes in chemical shifts in the aliphatic (δ = 0.04 ppm) and aromatic (δ = 6.5 ppm) regions"},
      {"measurement": "chemical shift changes, aliphatic region (δ)", "setting": "Hub1 [2]; 1H NMR, Hub1:peptide ratio 1:1 to 1:10, 300 K, aliphatic region", "result": 0.04, "unit": "ppm"},
      {"measurement": "buffer pH after titration", "setting": "Hub1 [2]; after titration of Hub1 with peptide", "result": 6.7}
    ]},
    {"molecule": "TNEIREKLGM [Peptide-14]", "values": [
      {"measurement": "Kd", "setting": "Hub1 [1]", "result": "14 ± 8.3", "unit": "µM"}
    ]},
    {"molecule": "Hub1 1-73 (protein) MIEVVCNDRLGKKVRVKCNTDDTIGDLKKLIAAQTGTRWNKIVLKKWYTIFKDHVSLGDYEIHDGMNLELYYQ", "values": [
      {"measurement": "Kd", "setting": "Snu66 peptide-14", "result": 14, "unit": "µM"}
    ]}
  ]
}
